Article PMC7733455, “A novel multistage antiplasmodial inhibitor targeting Plasmodium falciparum histone deacetylase 1” (Cell Discovery, 2020)
Like-named read-outs stand apart in the source and are kept apart here. Non-standard residues stand in square brackets, D forms with d. Residues, ends and D or L forms follow the SMILES beside them. ξ: configuration not given here. Aoe(9ξ) = N[C@@H](CCCCCC(=O)C1CO1)C(=O)O; dPip = O=C(O)[C@H]1CCCCN1

Experiments:
293T cells = test: In vitro cytotoxicity analysis (CellTiter-Glo), 293T; conditions: for EC50: read-out: Cytotoxicity EC50, 293T, 72 h, CellTiter-Glo
Method: (§1) In all, 1% DMSO was used as a negative control. The inhibition of each drug was normalized to that of the DMSO control. EC50 was calculated by GraphPad Prism. Three independent assays with two technical replicates each time were conducted in this experiment.

[1] = as above; conditions: human
Method: as §1

P. falciparum 3D7 = test: 3-day SYBR Green I growth inhibition assay (GIA), strain 3D7; format: cell-based, Plasmodium falciparum; conditions: read-out: Antiplasmodial activity EC50, 3D7
Method: (§2) A 3-day SYBR Green I inhibition EC50 assay was performed as described previously. Briefly, highly synchronized ring-stage parasites by 5% sorbitol (1% parasitemia and 2% hematocrit) were incubated in a 96-well plate with compounds in a total volume of 200 μL. […] The parasites were cultured for 72 h before SYBR Green I staining as described above. The EC50 was calculated by GraphPad Prism. DHA was used as a positive control, and the final concentration of DMSO was 1%.

HepG2 cells = test: In vitro cytotoxicity analysis (CellTiter-Glo), HepG2; conditions: for Selectivity index (range over HepG2 and 293T): HepG2 and 293T vs 3D7; for EC50: read-out: Cytotoxicity EC50, HepG2, 72 h, CellTiter-Glo
Method: as §1

[2] = as above; conditions: human
Method: as §1

P. falciparum Dd2 = test: 3-day SYBR Green I GIA, multidrug-resistant strain Dd2; format: cell-based, Plasmodium falciparum; conditions: 3-day SYBR Green I GIA, multidrug-resistant strain Dd2, read-out: Antiplasmodial activity EC50, Dd2
Method: as §2

[3] = 293T cells, Cytotoxicity EC50, 293T, 72 h, CellTiter-Glo
[4] = Plasmodium falciparum, 3D7, 72 h, 3-day SYBR Green I GIA, drug-sensitive strain 3D7
[5] = 3-day SYBR Green I GIA, drug-sensitive strain 3D7

Row | EC50 (P. falciparum 3D7; [4]) | EC50 (P. falciparum Dd2; Plasmodium falciparum, 72 h) | EC50 (P. falciparum Dd2) | EC50 (P. falciparum 3D7; [5]) | SMILES | Selectivity index for 293T (EC50 293T/EC50 3D7) (293T cells) | EC50 at 72 h [1, 3] | Selectivity index for HepG2 (EC50 HepG2/EC50 3D7) (HepG2 cells) | EC50 at 72 h ([2]; HepG2 cells) | Selectivity index (range over HepG2 and 293T) (HepG2 cells) | EC50 (293T cells) | EC50 (HepG2 cells) | EC50 at 72 h [1] | EC50 (P. falciparum 3D7; Plasmodium falciparum, 3D7, 72 h) | EC50 at 72 h [2]
1 | 63 nM | – | – | – | COc1ccc(-c2nc(N3CCOCC3)c3sc(CN(C)c4ncc(C(=O)NO)cn4)cc3n2)cn1 [Fimepinostat, reference compound] | 1 | 69 nM | 1 | 70 nM | – | – | – | – | – | –
2 | 4.4 ± 0.2 nM | 7 ± 0.2 nM | – | – | Cl.Cn1cc(CN2CC3CN(c4ncc(C(=O)NO)cn4)CC3C2)c2ccccc21 (stereo not shown) [JX21002] | 70 | 307 ± 4 nM | 29 | 128 ± 2 nM | 24–70 | – | – | – | – | –
3 | – | – | 15.3 ± 0.4 nM | 10.9 ± 0.8 nM | Cl.Cn1cc(CN2CCN(c3ncc(C(=O)NO)cn3)CC2)c2ccccc21 [JX21003] | 4 | – | 4 | – | – | 47 ± 21 nM | 44 ± 7 nM | – | – | –
4 | – | – | 61 ± 0.4 nM | 32.9 ± 0.9 nM | Cl.Cn1cc(CNC2CCN(c3ncc(C(=O)NO)cn3)CC2)c2ccccc21 [JX21004] | 16 | – | 9 | – | – | 519 ± 112 nM | 294 ± 57 nM | – | – | –
5 | – | – | 108 ± 5.6 nM | 73.6 ± 3.5 nM | CN(Cc1cn(C)c2ccccc12)C1CCN(c2ncc(C(=O)NO)cn2)CC1.Cl [JX21005] | 27 | – | 9 | – | – | 1980 ± 407 nM | 643 ± 36 nM | – | – | –
6 | – | – | 23.6 ± 0.4 nM | 13.1 ± 0.6 nM | Cl.Cn1cc(CN2CCC(CNc3ncc(C(=O)NO)cn3)CC2)c2ccccc21 [JX21008] | 19 | – | 52 | – | – | 253 ± 89 nM | 688 ± 10 nM | – | – | –
7 | – | – | 31.1 ± 4.6 nM | 23.4 ± 2.4 nM | Cl.Cn1cc(CN2CCC3(CC2)CCN(c2ncc(C(=O)NO)cn2)CC3)c2ccccc21 [JX21010] | 94 | – | 39 | – | – | 2210 ± 226 nM | 904 ± 18 nM | – | – | –
8 | 3 ± 0.7 nM | 3.2 ± 0.1 nM | – | – | Cn1cc(CN2CCC3(CCN(c4ncc(C(=O)NO)cn4)C3)C2)c2ccccc21 (stereo not shown) [JX21011] | 24 | 72 ± 10 nM | 38 | 113 ± 1 nM | 24–70 | – | – | – | – | –
9 | – | – | 44 ± 10 nM | 79.2 ± 2.4 nM | Cl.Cn1cc(CN2CCC3(CC2)CN(c2ncc(C(=O)NO)cn2)C3)c2ccccc21 [JX21013] | > 126 | – | > 126 | – | – | > 10000 nM | > 10000 nM | – | – | –
10 | – | – | 38.7 ± 0.6 nM | 45.2 ± 1.2 nM | Cl.Cn1cc(CN2CCC3(CCCN3c3ncc(C(=O)NO)cn3)CC2)c2ccccc21 [JX21019] | 22 | – | 19 | – | – | 1000 ± 208 nM | 875 ± 70 nM | – | – | –
11 | – | – | 125 ± 4.5 nM | 151 ± 2.7 nM | Cl.Cn1cc(CNC2CCC(Nc3ncc(C(=O)NO)cn3)CC2)c2ccccc21 (stereo not shown) [JX21022] | > 66 | – | > 66 | – | – | > 10000 nM | > 10000 nM | – | – | –
12 | – | – | 2.4 ± 0.2 nM | 4.2 ± 0.7 nM | Cl.Cn1cc(CN2CCC3(CCN(c4ncc(C(=O)NO)cn4)C3)C2)c2ccc(Cl)cc21 (stereo not shown) [JX21102] | – | – | 123 | – | – | 1670 ± 110 nM | 514 ± 22 nM | – | – | –
13 | – | – | 28.6 ± 1.8 nM | 17.8 ± 0.5 nM | Cl.O=C(NO)c1cnc(N2CCC3(CCN(Cc4ccccc4)C3)C2)nc1 (stereo not shown) [JX21105] | 101 | – | 68 | – | – | 1790 ± 37 nM | 1200 ± 68 nM | – | – | –
14 | – | – | 3.6 ± 0.08 nM | 2 ± 0.9 nM | Cl.Cn1cc(CN2CCC3(CCN(c4ncc(C(=O)NO)cn4)C3)C2)c2ccc(F)cc21 (stereo not shown) [JX21106] | 198 | – | 88 | – | – | 402 ± 96 nM | 178 ± 4 nM | – | – | –
15 | – | – | 35.4 ± 1.3 nM | 49.7 ± 1.1 nM | Cl.O=C(NO)c1cnc(N2CCC3(CCN(Cc4cccs4)C3)C2)nc1 (stereo not shown) [JX21110] | 91 | – | 34 | – | – | 4540 ± 323 nM | 1690 ± 163 nM | – | – | –
16 | – | – | 34 ± 2.5 nM | 45.5 ± 3.3 nM | Cl.O=C(NO)c1cnc(N2CCC3(CCN(Cc4ccco4)C3)C2)nc1 (stereo not shown) [JX21111] | 50 | – | 24 | – | – | 2260 ± 286 nM | 1100 ± 18 nM | – | – | –
17 | – | – | 28.3 ± 3.8 nM | 40.4 ± 4.1 nM | Cl.O=C(NO)c1cnc(N2CCC3(CCN(CC4CCCCC4)C3)C2)nc1 (stereo not shown) [JX21112] | 15 | – | 62 | – | – | 607 ± 42 nM | 2490 ± 520 nM | – | – | –
18 | – | – | 112 ± 13.1 nM | 67.5 ± 5.3 nM | Cl.O=C(NO)c1cnc(N2CCC3(CCN(Cc4coc5ccccc45)C3)C2)nc1 (stereo not shown) [JX21113] | 45 | – | > 148 | – | – | 3020 ± 67 nM | > 10000 nM | – | – | –
19 | – | – | 76.2 ± 9.9 nM | 45.9 ± 11.8 nM | Cl.O=C(NO)c1cnc(N2CCC3(CCN(Cc4ccnc5ccccc45)C3)C2)nc1 (stereo not shown) [JX21114] | 41 | – | 86 | – | – | 1859 ± 12 nM | 3930 ± 537 nM | – | – | –
20 | – | – | 33.9 ± 0.3 nM | 21.7 ± 0.2 nM | Cl.O=C(NO)c1cnc(N2CCC3(CCN(Cc4ccc(-c5ccccc5)cc4)C3)C2)nc1 (stereo not shown) [JX21116] | 111 | – | 137 | – | – | 2410 ± 118 nM | 2960 ± 152 nM | – | – | –
21 | – | – | 39 ± 4 nM | 53.3 ± 0.5 nM | Cl.O=C(NO)c1cnc(N2CCC3(CCN(Cc4cccnc4)C3)C2)nc1 (stereo not shown) [JX21119] | 131 | – | 120 | – | – | 6998 ± 57 nM | 6420 ± 540 nM | – | – | –
22 | – | – | 23.2 ± 1.2 nM | 18.6 ± 3.9 nM | Cl.O=C(NO)c1cnc(N2CCC3(CCN(Cc4ccsc4)C3)C2)nc1 (stereo not shown) [JX21120] | 211 | – | 114 | – | – | 3930 ± 374 nM | 2120 ± 165 nM | – | – | –
23 | – | – | 61.6 ± 4.8 nM | 92.5 ± 11.3 nM | Cl.O=C(NO)c1cnc(N2CCC3(CCN(CC4CCCC4)C3)C2)nc1 (stereo not shown) [JX21121] | > 108 | – | > 108 | – | – | > 10000 nM | > 10000 nM | – | – | –
24 | – | – | 74.4 ± 27.4 nM | 72.9 ± 10 nM | Cl.O=C(NO)c1cnc(N2CCC3(CCN(Cc4cnc5ccccn45)C3)C2)nc1 (stereo not shown) [JX21122] | > 137 | – | > 137 | – | – | > 10000 nM | > 10000 nM | – | – | –
25 | – | – | 4.9 ± 0.7 nM | 6 ± 0.4 nM | Cl.O=C(NO)c1cnc(N2CCC3(CCN(Cc4cccc5ccccc45)C3)C2)nc1 (stereo not shown) [JX21125] | 207 | – | 136 | – | – | 1240 ± 185 nM | 815 ± 48 nM | – | – | –
26 | – | – | 9.6 ± 0.5 nM | 7 ± 0.4 nM | Cl.O=C(NO)c1cnc(N2CCC3(CCN(Cc4ccc5ncccc5c4)C3)C2)nc1 (stereo not shown) [JX21137] | 254 | – | 179 | – | – | 1770 ± 28 nM | 1250 ± 190 nM | – | – | –
27 | – | – | 3.1 ± 0.3 nM | 7.9 ± 1 nM | Cl.O=C(NO)c1cnc(N2CCC3(CCN(Cc4ccc5ccccc5n4)C3)C2)nc1 (stereo not shown) [JX21143] | 368 | – | 49 | – | – | 2910 ± 655 nM | 388 ± 58 nM | – | – | –
28 | – | – | – | 23 nM | O=C(NO)c1cnc(N2CCN(S(=O)(=O)c3ccc4ccccc4c3)CC2)nc1 [R306465, reference compound] | 287 | – | 38 | – | – | 6600 nM | 877 nM | – | – | –
29 | – | – | – | – | O=C(CCCCC[C@@H]1NC(=O)[C@H]2CCCCN2C(=O)[C@H](Cc2ccccc2)NC(=O)[C@H](Cc2ccccc2)NC1=O)C1CO1 (stereo partly shown) [Trapoxin A, reference compound] (cyclo(FF[dPip][Aoe(9ξ)])) | 9 | – | 77 | – | – | – | – | 724 nM | 82 nM | 6320 nM

Row | SMILES | EC50 (P. falciparum 3D7; [4]) | EC50 (P. falciparum Dd2; Plasmodium falciparum, 72 h) | EC50 (P. falciparum Dd2) | EC50 (P. falciparum 3D7; [5]) | Selectivity index for 293T (EC50 293T/EC50 3D7) (293T cells) | EC50 at 72 h [1, 3] | Selectivity index for HepG2 (EC50 HepG2/EC50 3D7) (HepG2 cells) | EC50 at 72 h ([2]; HepG2 cells) | Selectivity index (range over HepG2 and 293T) (HepG2 cells) | EC50 (293T cells) | EC50 (HepG2 cells) | EC50 at 72 h [1] | EC50 (P. falciparum 3D7; Plasmodium falciparum, 3D7, 72 h) | EC50 at 72 h [2]
30 | CN(c1ncc(C(=O)NO)cn1)C1CCN(Cc2cn(C)c3ccccc23)CC1.Cl [JX21006] | 26.5 ± 1.2 nM | 32 ± 2.5 nM | – | – | 4 | 118 ± 24 nM | 1 | 37 ± 10 nM | – | – | – | – | – | –
31 | Cl.O=C(NO)c1cnc(N2CCC3(CCNC3)C2)nc1 (stereo not shown) [JX21131] | – | – | 20.7 ± 2.4 nM | 40.4 ± 9.2 nM | > 248 | – | > 248 | – | – | > 10000 nM | > 10000 nM | – | – | –
